Legend:
Assay type in all cases: cell-based, C57BL/6 mice
[1] = tested on: IL-6 mRNA; assay: IL-6 mRNA expression by qPCR in LPS-stimulated peritoneal macrophages; details: test agent 20 μM, LPS (1 g/mL), vs absence of CPZ (FIG. 10)
Description: (§1) Peritoneal macrophages from C57BL/6 mice (aged 6 to 8 weeks) were stimulated with LPS ([…]) in the presence or absence of a test agent (20 μM). The relative expression levels of mRNAs of Arid5A, IL-6, and TNF-α were determined in the stimulated peritoneal macrophages by quantitative PCR (qPCR). The expression level of Arid5A mRNA was determined 2 hours after LPS stimulation. The expression levels of IL-6 mRNA and TNF-α mRNA were determined 2 hours, 6 hours, 12 hours, and 24 hours after LPS stimulation. FIGS. 9 to 11 show the results when chlorpromazine (CPZ) was used as a test agent.

[2] = tested on: Arid5A mRNA; assay: Arid5A mRNA expression by qPCR in LPS-stimulated peritoneal macrophages; details: test agent 20 μM, LPS (1 g/mL), 2 hours after LPS stimulation, vs absence of CPZ (FIG. 9)
Description: as §1

[3] = tested on: TNF-α mRNA; assay: TNF-α mRNA expression by qPCR in LPS-stimulated peritoneal macrophages; details: test agent 20 μM, LPS (1 g/mL), determined 2, 6, 12 and 24 hours after LPS stimulation (FIG. 11)
Description: as §1

## CN(C)CCCN1c2ccccc2Sc2ccc(Cl)cc21 [CPZ, chlorpromazine]
[1]; 2 hours after LPS stimulation
  expression of IL-6 mRNA: markedly suppressed
[1]; 6 hours after LPS stimulation
  expression of IL-6 mRNA: markedly suppressed
[2]
  expression of Arid5A mRNA: markedly suppressed
[3]
  expression of TNF-α mRNA: no effect
